Test results from the supplement of paper PMC10307832.

Tests used:
Assay in all cases: relative viability (nuclei count vs DMSO), 5 days (fraction); higher = more cells survive
[1] = test system: ABC-1
In short: (§1)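 One day after seeding in 1536-well plates, lung cancer cell lines were dosed by pin tool. Dosing was either single-drug or a fixed anchor-drug dose plus five library-drug doses (not always all listed) in √10 steps. After 5 days, nuclei were stained in one fix-and-stain step and counted on 4× images, and relative viability is the nuclei count of treated wells over that of vehicle wells, given as the median of duplicate plates.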

[2] = test system: NCI-H2087
In short: as §1

[3] = test system: LC-2-ad
In short: as §1

[4] = test system: HCC-78
In short: as §1

[5] = test system: NCI-H3122
In short: as §1

[6] = test system: NCI-H460
In short: as §1

[7] = test system: PC-3 [JPC-3]
In short: as §1

[8] = test system: NCI-H1944
In short: as §1

[9] = test system: NCI-H2405
In short: as §1

[10] = test system: RERF-LC-KJ
In short: as §1

[11] = test system: NCI-H1755
In short: as §1

[12] = test system: LU99A
In short: as §1

[13] = test system: NCI-H1395
In short: as §1

[14] = test system: NCI-H2170
In short: as §1

[15] = test system: NCI-H1734
In short: as §1

[16] = test system: NCI-H1793
In short: as §1

[17] = test system: UMC-11
In short: as §1

[18] = test system: LOU-NH91
In short: as §1

[19] = test system: NCI-H1651
In short: as §1

[20] = test system: HCC-366
In short: as §1

[21] = test system: ChaGo-K-1
In short: as §1

CC1(C)CCC(c2ccc(Cl)cc2)=C(CN2CCN(c3ccc(C(=O)NS(=O)(=O)c4ccc(N[C@H](CCN5CCOCC5)CSc5ccccc5)c(S(=O)(=O)C(F)(F)F)c4)cc3)CC2)C1 [Navitoclax] + Nc1ncn([C@H]2C[C@H](O)[C@@H](CO)O2)c(=O)n1 [Decitabine] (partner 2 µM)
relative viability ([1]; first compound 0.005 µM): 0.889 | relative viability ([1]; first compound 0.01581 µM): 1.21 | relative viability ([1]; first compound 0.05 µM): 1.02 | relative viability ([1]; first compound 0.1581 µM): 0.986 | relative viability ([1]; first compound 0.5 µM): 1 | relative viability ([2]; first compound 0.005 µM): 0.277 | relative viability ([2]; first compound 0.01581 µM): 0.314 | relative viability ([2]; first compound 0.1581 µM): 0.231 | relative viability ([2]; first compound 0.5 µM): 0.266 | relative viability ([3]; first compound 0.005 µM): 0.793 | relative viability ([3]; first compound 0.01581 µM): 0.72 | relative viability ([3]; first compound 0.05 µM): 0.673 | relative viability ([3]; first compound 0.1581 µM): 0.701 | relative viability ([3]; first compound 0.5 µM): 0.774 | relative viability ([4]; first compound 0.005 µM): 0.759 | relative viability ([4]; first compound 0.01581 µM): 0.732 | relative viability ([4]; first compound 0.05 µM): 0.605 | relative viability ([4]; first compound 0.1581 µM): 0.636 | relative viability ([4]; first compound 0.5 µM): 0.798 | relative viability ([5]; first compound 0.005 µM): 0.407 | relative viability ([5]; first compound 0.01581 µM): 0.446 | relative viability ([5]; first compound 0.05 µM): 0.471 | relative viability ([5]; first compound 0.1581 µM): 0.433 | relative viability ([5]; first compound 0.5 µM): 0.444 | relative viability ([6]; first compound 0.005 µM): 0.481 | relative viability ([6]; first compound 0.01581 µM): 0.523 | relative viability ([6]; first compound 0.05 µM): 0.234 | relative viability ([6]; first compound 0.1581 µM): 0.411 | relative viability ([6]; first compound 0.5 µM): 0.444 | relative viability ([7]; first compound 0.005 µM): 0.922 | relative viability ([7]; first compound 0.01581 µM): 0.876 | relative viability ([7]; first compound 0.05 µM): 0.912 | relative viability ([7]; first compound 0.1581 µM): 0.758 | relative viability ([7]; first compound 0.5 µM): 0.653 | relative viability ([8]; first compound 0.005 µM): 0.466 | relative viability ([8]; first compound 0.01581 µM): 0.455 | relative viability ([8]; first compound 0.1581 µM): 0.384 | relative viability ([8]; first compound 0.5 µM): 0.396 | relative viability ([9]; first compound 0.005 µM): 0.75 | relative viability ([9]; first compound 0.01581 µM): 0.812 | relative viability ([9]; first compound 0.05 µM): 0.885 | relative viability ([9]; first compound 0.1581 µM): 0.717 | relative viability ([9]; first compound 0.5 µM): 0.771 | relative viability ([10]; first compound 0.005 µM): 0.834 | relative viability ([10]; first compound 0.01581 µM): 0.55 | relative viability ([10]; first compound 0.05 µM): 0.669 | relative viability ([10]; first compound 0.1581 µM): 0.733 | relative viability ([10]; first compound 0.5 µM): 0.708 | relative viability ([11]; first compound 0.005 µM): 0.664 | relative viability ([11]; first compound 0.01581 µM): 0.727 | relative viability ([11]; first compound 0.05 µM): 0.611 | relative viability ([11]; first compound 0.1581 µM): 0.677 | relative viability ([11]; first compound 0.5 µM): 0.697 | relative viability ([12]; first compound 0.005 µM): 0.876 | relative viability ([12]; first compound 0.01581 µM): 0.977 | relative viability ([12]; first compound 0.1581 µM): 0.921 | relative viability ([12]; first compound 0.5 µM): 0.989 | relative viability ([13]; first compound 0.005 µM): 0.706 | relative viability ([13]; first compound 0.01581 µM): 0.701 | relative viability ([13]; first compound 0.05 µM): 0.724 | relative viability ([13]; first compound 0.1581 µM): 0.713 | relative viability ([13]; first compound 0.5 µM): 0.699 | relative viability ([14]; first compound 0.005 µM): 0.473 | relative viability ([14]; first compound 0.01581 µM): 0.484 | relative viability ([14]; first compound 0.05 µM): 0.475 | relative viability ([14]; first compound 0.1581 µM): 0.414 | relative viability ([14]; first compound 0.5 µM): 0.434 | relative viability ([15]; first compound 0.005 µM): 0.51 | relative viability ([15]; first compound 0.01581 µM): 0.512 | relative viability ([15]; first compound 0.1581 µM): 0.5 | relative viability ([15]; first compound 0.5 µM): 0.465 | relative viability ([16]; first compound 0.005 µM): 0.448 | relative viability ([16]; first compound 0.01581 µM): 0.595 | relative viability ([16]; first compound 0.1581 µM): 0.49 | relative viability ([16]; first compound 0.5 µM): 0.345 | relative viability ([17]; first compound 0.005 µM): 0.707 | relative viability ([17]; first compound 0.01581 µM): 0.635 | relative viability ([17]; first compound 0.05 µM): 0.616 | relative viability ([17]; first compound 0.1581 µM): 0.547 | relative viability ([17]; first compound 0.5 µM): 0.609 | relative viability ([18]; first compound 0.005 µM): 0.798 | relative viability ([18]; first compound 0.01581 µM): 0.88 | relative viability ([18]; first compound 0.05 µM): 0.79 | relative viability ([18]; first compound 0.1581 µM): 0.711 | relative viability ([18]; first compound 0.5 µM): 0.391 | relative viability ([19]; first compound 0.005 µM): 0.797 | relative viability ([19]; first compound 0.01581 µM): 0.591 | relative viability ([19]; first compound 0.05 µM): 0.42 | relative viability ([19]; first compound 0.1581 µM): 0.628 | relative viability ([19]; first compound 0.5 µM): 0.644 | relative viability ([20]; first compound 0.005 µM): 0.34 | relative viability ([20]; first compound 0.01581 µM): 0.4 | relative viability ([20]; first compound 0.1581 µM): 0.332 | relative viability ([20]; first compound 0.5 µM): 0.365 | relative viability ([21]; first compound 0.005 µM): 0.498 | relative viability ([21]; first compound 0.01581 µM): 0.549 | relative viability ([21]; first compound 0.05 µM): 0.392 | relative viability ([21]; first compound 0.1581 µM): 0.498 | relative viability ([21]; first compound 0.5 µM): 0.52
